The values below come from PMC7976169 (Antiviral research, 2020).

For one series, the system named is Uninfected Vero cells. It counts as in vitro ADME.
Another series concerns HSV. The following applies: cited from earlier work.
In series [1] the test system is HSV-1 KOS1.1-infected Vero cells. The series is described as follows: Biosynthesis of nucleoside analog triphosphate in HSV-infected cells. The class given is in vitro ADME.
For series [2] the following is noted: in vivo; cited from earlier work.
Series [3] concerns HCMV Towne-infected HFF cells. The series is described as follows: Biosynthesis of nucleoside analog triphosphate in HCMV-infected cells. The class given is in vitro ADME. The note with it: for Other metabolites detected: five times the EC50.
The subject of the next series is HCMV. The following applies: cited from earlier work.
The next series has as its system Uninfected HFF cells. Briefly: Triphosphate formation in uninfected HFF cells. It counts as in vitro ADME.
[4] abbreviates: read-out: EC50 vs HCMV, ref Qiu et al., 1998.
Setting [5] is: read-out: EC50 against HCMV, ref Zhou et al., 2004.

Where two headings read alike, the source gives them in different places.

What is called EC50 is the midpoint of the concentration-response curve. Take `Nc1nc2c(ncn2COCCO)c(=O)[nH]1` [ACV, acyclovir]: the “Levels of phosphates in uninfected Vero cells” value in the series on Uninfected Vero cells is given as “no measurable level”. The EC50 in the series with HSV (reported EC50 of ACV, ref Furman et al., 1981) is 1 µM.

In the case of `Nc1nc2c(ncn2COCCOP(=O)(O)OP(=O)(O)OP(=O)(O)O)c(=O)[nH]1` [ACV-TP], the “Triphosphate level at 8 hours” value in series [1] (HSV-infected cells, 5.0 μM ACV, 8 hours) was determined as 3.8 ± 0.3 pmol/10^6 cells. For the same compound, the “Delay in production of triphosphate” value in series [1] (HSV-infected cells, delay due to lack of HSV-TK early after infection) is around 2 h.

As for `Nc1ccn(C[C@@H](CO)OCP(=O)(O)O)c(=O)n1` [cidofovir], in series [2], the “Incidence rate of nephrotoxicity” value is on record as ~ 50%.

As for `CCCCOc1nc(N)nc2c1ncn2C=C1CC1(CO)CO` [MBX-2168], the Other metabolites detected entry in series [3] is reported as “no other metabolites”; in series [1] (HSV-infected Vero cells, five times the EC50), “no other metabolites”. For the same compound, the EC50 in the series with HCMV (read-out: EC50 HCMV, ref Prichard et al., 2013) was 0.8 µM; in the series with HSV (read-out: EC50 HSV, ref Prichard et al., 2013), 6.7 µM.

For the compound `Nc1nc2c(ncn2/C=C2/CC2CO)c(=O)[nH]1` (stereo not drawn) [synguanol], the Other metabolites detected entry in series [3] is on record as “no other metabolites”. In the series with Uninfected HFF cells, the “Levels of phosphates in uninfected HFF cells” value was “no measurable levels”. Also, in the series with HCMV (setting [4]), the EC50 was 2.1 µM.

`Nc1nc(O)c2ncn(COC(CO)COP(=O)(O)OP(=O)(O)OP(=O)(O)O)c2n1` (stereo not drawn) [GCV-TP]: the “Peak Triphosphate Level” value in series [3] ([…], maximum at 120 hours) was determined as 42.6 ± 3.7 pmol/10^6 cells.

For the compound `O=C(O)P(=O)(O)O` [foscarnet], the “Incidence rate of nephrotoxicity” value in series [2] is given as ~ 50%.

Consider `Nc1nc2c(ncn2/C=C2/CC2(CO)CO)c(=O)[nH]1` [FCV, Filociclovir], for which the 50% effective concentration (EC50) in the series with HCMV (setting [5]) is 0.46 µM. For the same compound, the “Fold greater efficacy against HCMV compared to GCV” value in the series on HCMV (ref Zhou et al., 2004) is recorded as 10 fold.

As to `Nc1nc(O)c2ncn(COC(CO)CO)c2n1` [GCV, ganciclovir], the Other metabolites detected entry in series [3] is given as “no other metabolites”. Further, the “Levels of phosphates in uninfected HFF cells” value in the series with Uninfected HFF cells is given as “no measurable levels”. Further, the concentration giving a half-maximal response (EC50) is 4.1 µM with HCMV (setting [5]) and 7.4 µM in the series with HCMV (setting [4]). Also, in series [2], the Incidence of neutropenia is listed as ~ 30 % of patients.
